Data as given in patent publication US9828630B2, “Methods of enhancing genetic diagnosis” (BioLamina AB, priority 2011, dated 2017).

Experiments:
human ES cells [1] = assay: Cell adhesion assay, 1 hour after plating on coated plates; type: cell-based
Description: The assay was performed as described (Extracellular Matrix Protocols, 2000). Briefly, 96-well plates were coated by extracellular matrix proteins as described above and blocked by O3 medium containing bovine serum albumin. The ES cells were plated at a cell density of 600 cell/mm^2 upon extracellular matrix-coated plates and were left to adhere for either 1 hour or 1 day at the cell incubator. Non-adherent cells were washed away, and adherent cells were fixed for 20 min by 5% glutaraldehyde, stained by 0.1% Crystal Violet.
Briefly, 96-well plates were coated by extracellular matrix proteins as described above and blocked by O3 medium containing bovine serum albumin. The ES cells were plated at cell density of 50,000 cells/cm^2 onto extracellular matrix-coated plates and left to adhere for 1 hour in a cell incubator. After that the plates were washed 3 times with the medium to remove the non-adherent cells, and then the adherent cells were fixed for 20 minutes by 5% glutaraldehyde, stained by 0.1% Crystal Violet. (Kebo Lab, Spanga, Sweden, http://www.kebolab.se). After one hour and 3 washes with water, Crystal Violet was extracted with 10% acetic acid and quantified by measuring optical density at 570 nm. All the experiments were performed in quadruplicate.

human ES cells [2] = assay: Real-time quantitative RT-PCR / marker expression of pluripotency and differentiation markers; type: cell-based
Description: Total RNA was isolated and cDNA was synthesized as described in Rodin et al., Nature Biotechnol., vol. 28, pp. 611-615 (2010). Real-time quantitative RT-PCR Taqman assays were performed using the Applied Biosystems 7300 Real-Time PCR System. All reactions were done in quadruplicate with predeveloped gene expression assay mix (Applied Biosystems) containing primers and a probe for the mRNA of interest. Additional reactions for each experiment included predeveloped gene expression assay mix for GAPDH, used to normalize the RNA input. All data were analyzed with 7300 System SDS Software version 1.4.
Total RNA was isolated using Absolutely RNA Microprep Kit (Stratagene, La Jolla Calif., www.stratagene.com) according to the manufacturer's instructions. cDNA was synthesized using 0.2 μg of total RNA in 20 μl reaction mixture, containing oligo(dT)12-18 primers and Superscript II reverse transcriptase (GIBCO Invitrogen Corporation), according to the manufacturer's instructions. Real-time quantitative RT-PCR Taqman assays were performed using the Applied Biosystems 7300 Real-Time PCR System (Applied Biosystems, Foster City, Calif.). All reactions were done in quadruplicates with the use of a pre-developed gene expression assay mix (Applied Biosystems) containing primers and a probe for the mRNA of interest. […] All data was analyzed with 7300 System SDS Software v 1.4.

ES cells = assay: Embryoid body formation; type: cell-based, human; settings: cells cultured on LN-521, all three cases
Description: ES cells from LN-521 coated cell culture dishes were exposed to TrypLE™ Select for one minute at 37° C., 5% CO2, washes two times with a medium, broken into large pieces and cultured in suspension in low adhesion plates. The medium used for this was Knockout DMEM (GIBCO Invitrogen Corporation) supplemented with 2 mM L-glutamine, 20% fetal calf serum (GIBCO Invitrogen Corporation), 0.1 mM β-mercaptoethanol (GIBCO Invitrogen Corporation) and 1% non-essential amino acids (GIBCO Invitrogen Corporation). After 1-2 weeks in suspension, the embryoid bodies were transferred onto gelatin coated tissue cell culture 96-well plates (Sarstedt), cultured for 1-2 weeks, then fixed, stained with antibodies against markers of all three embryonic germ line layers (smooth muscle actin, MAP-2 and α-fetoprotein) and analyzed as described above for immunofluorescence.

LN-521: protein formed by joining laminin α5, β2 and γ1 chains; human recombinant, produced in HEK293 cells
adhesion of human ES cells after 1 hour (human ES cells [1]; O3 medium without any additives, without Y-27632, FIG. 6): roughly the same
spreading of the cells after one hour compared with Matrigel or LN-111 (human ES cells [1]; dissociated hES cells, not shown): clearly better
number of mRNA transcripts of pluripotency markers Oct4 and Nanog compared with Matrigel (human ES cells [2]; FIG. 11): higher numbers of transcripts
expression levels of pluripotency markers Oct4, Nanog and SSEA4 (human ES cells [2]; similar to cells on Matrigel passed as small clumps): stable expression levels
embryoid body formation with markers of mesoderm, ectoderm and endoderm (ES cells): retained the competence to form embryoid bodies
